What was measured:
[1] = molecular target: T1, ATP-dependent translocase ABCB1 (Homo sapiens, UniProt P08183); test: TP_TRANSPORTER: increase in Vinblastine intracellular accumulation (Vinblastine: 0.01-0.02 uM, Cytochalasine E: 10 uM) in MCF-7/ADR cells; type: functional, cell-based; settings: nci/adr-res
[2] = molecular target: T1, ATP-dependent translocase ABCB1; test: TP_TRANSPORTER: ATP hydrolysis in membranes from MCF/ADR cells; type: functional, cell membranes, Membrane
[3] = molecular target: T1, ATP-dependent translocase ABCB1; test: TP_TRANSPORTER: increase in Vinblastine intracellular accumulation (Vinblastine: 0.01-0.02 uM, Dihydrocytochalasin B: 10 uM) in MCF-7/ADR cells; type: functional, cell-based; settings: nci/adr-res

T1 sequence (P08183 whole entry): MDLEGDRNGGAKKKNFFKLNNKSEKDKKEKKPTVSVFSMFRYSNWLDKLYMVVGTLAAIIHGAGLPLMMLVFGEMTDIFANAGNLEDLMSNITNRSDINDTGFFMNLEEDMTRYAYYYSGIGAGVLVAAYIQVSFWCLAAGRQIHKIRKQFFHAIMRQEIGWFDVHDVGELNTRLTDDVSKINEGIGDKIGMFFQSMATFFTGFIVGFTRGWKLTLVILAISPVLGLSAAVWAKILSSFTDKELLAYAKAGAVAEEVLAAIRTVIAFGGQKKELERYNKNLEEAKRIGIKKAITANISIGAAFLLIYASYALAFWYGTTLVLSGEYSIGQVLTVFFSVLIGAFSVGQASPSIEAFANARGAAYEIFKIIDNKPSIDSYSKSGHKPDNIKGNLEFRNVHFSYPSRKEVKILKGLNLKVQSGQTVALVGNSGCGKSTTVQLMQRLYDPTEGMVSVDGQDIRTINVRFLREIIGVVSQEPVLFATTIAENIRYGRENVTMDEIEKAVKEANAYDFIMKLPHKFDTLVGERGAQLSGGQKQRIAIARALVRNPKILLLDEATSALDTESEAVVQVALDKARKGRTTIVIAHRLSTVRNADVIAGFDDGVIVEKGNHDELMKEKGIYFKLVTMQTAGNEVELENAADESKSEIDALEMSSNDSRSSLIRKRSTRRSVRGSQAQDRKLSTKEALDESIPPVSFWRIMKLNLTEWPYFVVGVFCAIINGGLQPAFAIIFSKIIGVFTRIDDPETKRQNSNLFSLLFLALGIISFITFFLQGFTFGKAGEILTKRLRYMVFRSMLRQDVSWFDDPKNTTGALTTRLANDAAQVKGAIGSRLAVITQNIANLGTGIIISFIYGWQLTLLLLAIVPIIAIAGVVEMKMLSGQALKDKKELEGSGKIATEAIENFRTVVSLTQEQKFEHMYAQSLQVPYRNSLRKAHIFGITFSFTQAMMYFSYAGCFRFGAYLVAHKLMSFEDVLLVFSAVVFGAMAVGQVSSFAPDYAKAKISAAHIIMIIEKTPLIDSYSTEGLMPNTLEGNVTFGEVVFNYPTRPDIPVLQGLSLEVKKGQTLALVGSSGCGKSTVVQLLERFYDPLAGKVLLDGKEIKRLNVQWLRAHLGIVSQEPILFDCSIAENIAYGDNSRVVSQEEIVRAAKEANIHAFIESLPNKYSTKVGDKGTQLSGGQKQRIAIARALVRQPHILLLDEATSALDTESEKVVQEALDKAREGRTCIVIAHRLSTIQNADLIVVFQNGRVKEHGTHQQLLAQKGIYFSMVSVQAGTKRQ

SMILES	Activity [1]	Activity [2]	Activity [3]
C[C@H]1C/C=C/[C@H]2[C@@H]3O[C@]3(C)[C@@H](C)[C@H]3[C@H](Cc4ccccc4)NC(=O)[C@]32OC(=O)O/C=C/[C@@](C)(O)C1=O [CYTOCHALASIN E]	190%	–	–
C=C1[C@@H](C)[C@H]2[C@H](Cc3ccccc3)NC(=O)[C@]23OC(=O)CC[C@H](O)CCC[C@@H](C)C/C=C/[C@H]3[C@@H]1O [DIHYDROCYTOCHALASIN B]	–	substrate [+]	257%

— ChEMBL document CHEMBL2074535, “Differential interactions of cytochalasins with P-glycoprotein” (Oncol Res, 1995)
